# US20150065345A1, “1,2,4 - TRIAZOLE DERIVATIVES AS HERBICIDALS” (SYNGENTA LIMITED, priority 2012, published 2015)
# Legend:
# Type in all cases: in vivo
# [1] = tested on: Alopecurus myosuroides (ALOMY); experiment: Glasshouse herbicide test, post-emergence; conditions: 1000 g/h, evaluated after 13 days, five point scale
# Protocol: (§1) Seeds of a variety of test species are sown in standard soil in pots Alopecurus myosuroides (ALOMY), Amaranthus retoflexus (AMARE), Setaria faberi (SETFA), Echinochloa crus-galli (ECHCG), Lolium perenne (LOLPE), Solanum nigrum (SOLNI), Stellaria media (STEME) and Digitaria sanguinalis (DIGSA). After cultivation for one day (pre-emergence) or after 8 days cultivation (post-emergence) under controlled conditions in a glasshouse (at 24/16° C., day/night; 14 hours light; 65% humidity), the plants are sprayed with an aqueous spray solution derived from the formulation of the technical active ingredient in acetone/water (50:50) solution containing 0.5% Tween 20 (polyoxyethelyene sorbitan monolaurate, CAS RN 9005-64-5). Compounds are applied at 1000 g/h. The test plants are then grown in a glasshouse under controlled conditions in a glasshouse (at 24/16° C., day/night; 14 hours light; 65% humidity) and watered twice daily. After 13 days for pre and post-emergence, the test is evaluated for the percentage damage caused to the plant. The biological activities are shown in the following table on a five point scale (5=80-100%; 4=60-79%; 3=40-59%; 2=20-39%; 1=0-19%).
# [2] = tested on: Amaranthus retoflexus (AMARE); experiment: Glasshouse herbicide test, post-emergence; conditions: 1000 g/h, evaluated after 13 days, five point scale, second table
# Protocol: as §1
# [3] = tested on: Echinochloa crus-galli (ECHCG); experiment: Glasshouse herbicide test, post-emergence; conditions: 1000 g/h, evaluated after 13 days, five point scale
# Protocol: as §1
# [4] = tested on: IPOHE; experiment: Glasshouse herbicide test, post-emergence; conditions: 1000 g/h, evaluated after 13 days, five point scale
# Protocol: [The procedure below names another species; the source lists this species under the same test.] as §1
# [5] = tested on: Setaria faberi (SETFA); experiment: Glasshouse herbicide test, post-emergence; conditions: 1000 g/h, evaluated after 13 days, five point scale
# Protocol: as §1
# [6] = tested on: Solanum nigrum (SOLNI); experiment: Glasshouse herbicide test, post-emergence; conditions: 1000 g/h, evaluated after 13 days, five point scale
# Protocol: as §1
# [7] = tested on: Alopecurus myosuroides (ALOMY); experiment: Glasshouse herbicide test, pre-emergence; conditions: 1000 g/h, evaluated after 13 days, five point scale
# Protocol: as §1
# [8] = tested on: Amaranthus retoflexus (AMARE); experiment: Glasshouse herbicide test, pre-emergence; conditions: 1000 g/h, evaluated after 13 days, five point scale, second table
# Protocol: as §1
# [9] = tested on: Echinochloa crus-galli (ECHCG); experiment: Glasshouse herbicide test, pre-emergence; conditions: 1000 g/h, evaluated after 13 days, five point scale
# Protocol: as §1
# [10] = tested on: IPOHE; experiment: Glasshouse herbicide test, pre-emergence; conditions: 1000 g/h, evaluated after 13 days, five point scale
# Protocol: [The procedure below names another species; the source lists this species under the same test.] as §1
# [11] = tested on: Setaria faberi (SETFA); experiment: Glasshouse herbicide test, pre-emergence; conditions: 1000 g/h, evaluated after 13 days, five point scale
# Protocol: as §1
# [12] = tested on: Solanum nigrum (SOLNI); experiment: Glasshouse herbicide test, pre-emergence; conditions: 1000 g/h, evaluated after 13 days, five point scale
# Protocol: as §1
SMILES,"percentage damage caused to the plant, ALOMY, POST Application [1]","percentage damage caused to the plant, AMARE, POST Application [2]","percentage damage caused to the plant, ECHCG, POST Application [3]","percentage damage caused to the plant, IPOHE, POST Application [4]","percentage damage caused to the plant, SETFA, POST Application [5]","percentage damage caused to the plant, SOLNI, POST Application [6]","percentage damage caused to the plant, ALOMY, PRE Application [7]","percentage damage caused to the plant, AMARE, PRE Application [8]","percentage damage caused to the plant, ECHCG, PRE Application [9]","percentage damage caused to the plant, IPOHE, PRE Application [10]","percentage damage caused to the plant, SETFA, PRE Application [11]","percentage damage caused to the plant, SOLNI, PRE Application [12]"
CCc1nnc(NC(=O)c2ccc(S(C)(=O)=O)c(COCC(F)(F)F)c2Cl)n1C [Compound 1.013],2 (2=20-39%),1 (1=0-19%),1 (1=0-19%),1 (1=0-19%),1 (1=0-19%),2 (2=20-39%),1 (1=0-19%),1 (1=0-19%),1 (1=0-19%),1 (1=0-19%),1 (1=0-19%),1 (1=0-19%)
CCn1cnnc1NC(=O)c1ccc(S(C)(=O)=O)c(COCC(F)(F)F)c1Cl [Compound 1.014],5 (5=80-100%),5 (5=80-100%),5 (5=80-100%),5 (5=80-100%),5 (5=80-100%),5 (5=80-100%),5 (5=80-100%),5 (5=80-100%),5 (5=80-100%),5 (5=80-100%),5 (5=80-100%),5 (5=80-100%)
CCn1c(C)nnc1NC(=O)c1ccc(S(C)(=O)=O)c(COCC(F)(F)F)c1Cl [Compound 1.015],2 (2=20-39%),4 (4=60-79%),2 (2=20-39%),4 (4=60-79%),1 (1=0-19%),4 (4=60-79%),1 (1=0-19%),4 (4=60-79%),1 (1=0-19%),2 (2=20-39%),1 (1=0-19%),4 (4=60-79%)
Cn1cnnc1NC(=O)c1cc(F)c(F)cc1[N+](=O)[O-] [Compound 2.003],1 (1=0-19%),1 (1=0-19%),1 (1=0-19%),1 (1=0-19%),1 (1=0-19%),1 (1=0-19%),1 (1=0-19%),1 (1=0-19%),1 (1=0-19%),1 (1=0-19%),1 (1=0-19%),1 (1=0-19%)
Cc1ccc([N+](=O)[O-])c(C(=O)Nc2nncn2C)c1 [Compound 2.005],1 (1=0-19%),4 (4=60-79%),1 (1=0-19%),4 (4=60-79%),1 (1=0-19%),4 (4=60-79%),1 (1=0-19%),2 (2=20-39%),1 (1=0-19%),3 (3=40-59%),1 (1=0-19%),2 (2=20-39%)
